This note sets out measurements from a melting point compilation (Tetko et al.; mined from patent text by program, amines drawn as free bases though some values may be those of a salt).

Some results are limits rather than exact numbers.

In turn, `Cc1cccc(-c2nc3cccnn3c2-c2ccnc(NCc3ccco3)c2)c1` displayed a melting point of 150 to 151 °C. For `Nc1cccc(C(CC2CCCC2)C(=O)Nc2nccs2)c1` (stereo unspecified) the value was 158 to 160 °C.

As to `O=P(O)(CO)c1ccccc1`, the melting point lay in the range of 134 to 136 °C. For `Cc1cc2ncc(Nc3cccc(Cl)c3)nc2cc1C` the value was 175 °C; for `Cc1cc2cc(CN3CCCC3)cnc2cc1NC(=O)c1ccc(-c2ccc(C(F)(F)F)cc2)cc1`, 216 to 219 °C; for `O=C1Cc2cc(Sc3ccccc3)ncc2N1`, 186 to 189 °C. For `O=C(O)C1CCC=C(c2ccccc2)C1` (stereo unspecified) the value was 77 to 80 °C; for `Cc1cc(C)cc(NC(=O)CO)c1`, 114 °C.

As to `CCCCOC(=O)NS(=O)(=O)/C=C/c1cc(OCCCC)nn1Cc1ccc(Cl)cc1Cl`, the melting point is 137 to 138 °C. As for `Cc1cc(SCc2ccc(-c3ccc(C(F)(F)F)cc3)cc2)c2c(c1OCC(=O)O)CCC2`, the figure is 177 °C; as for `CC(C)(CN)c1ccc2nc(-c3ccccc3)[nH]c2c1`, 185 to 187 °C; as for `CNS(=O)(=O)c1ccccc1S(=O)(=O)NC(=O)Nc1nc(C)cc(C)n1`, 180 to 185 °C. As for `COc1c(C)c(C)c2c(c1C)CC(CC(=O)O)O2` (racemic), the figure is 74 to 76 °C; as for `CC(C)(C)c1cc(-n2ccc(=O)[nH]c2=O)cc(Br)c1Cl`, above 280 °C; as for `COc1nc2c(c(OC)n1)C(c1ccc(O)c(OC)c1)C1=C(COC1=O)N2` (stereo unspecified), 294 to 296 °C.

Turning to `COCOCc1cccc2c(=O)c(C(=O)O)c(-c3ccccc3)oc12`, the melting point was in the range of 142 to 143 °C. As for `COC(=O)c1cccnc1Cn1cccc1C=O`, the figure is 91 to 93 °C; as for `CC(C(=O)c1ccncc1)c1ccc(C2=CCCCC2)cc1` (stereo unspecified), 88 to 90 °C; as for `CC(=O)Nc1ccc(Sc2c([N+](=O)[O-])cc(C(=O)O)cc2S(N)(=O)=O)cc1`, 168 °C. For `O=C(c1ccc(Cl)cc1)c1c(N2C(=O)c3ccccc3C2=O)sc(Br)c1CO` the value was 170 to 172 °C; for `COc1cncnc1OCc1ccc(C(C)(C)C)cc1`, 58 to 59 °C; for `O=C(Nc1ccc(Oc2ccnc(N3CCCC3)n2)c2ccccc12)c1cc(F)cc(N2CCOCC2)c1`, 205 to 207 °C.

Take `Cc1cc(C)cc(-c2cnn3c(-c4cccc(-c5nnn(CC6CCC6)n5)c4)ccnc23)c1`: the melting point came to 64 °C. For the compound `COC(=O)COc1ccc([N+](=O)[O-])c(F)c1`, the melting point was 93 to 94 °C. For `CCOC(=O)C1(c2ccccc2)CCN(C2CCC(C#N)(c3ccc(F)cc3C)CC2)CC1` (stereo unspecified) the value was 135 °C; for `Oc1ccc(-c2noc(C3(COc4c(F)cccc4OC(F)(F)F)CC3)c2-c2ccccc2)cc1`, 132 to 133 °C.

The compound `CNC(Cc1ccc2c(c1)Nc1nccnc1S2)=NC#N` came in with a melting point of 233 to 234 °C.

Consider `O=C1Nc2ccc(F)c(F)c2C(C#Cc2ccccn2)(C(F)(F)F)N1` (racemic), for which the melting point was in the range of 219 to 220 °C. As for `CCOC(=O)c1c(C(C)C)nc(C(C)C)c(C(=O)OCC)c1-c1ccc(OCc2ccccc2)cc1`, the figure is 87 °C; as for `C=C(C)CN1Cc2cc(Cl)cc3[nH]c(=O)n(c23)CC1C` (stereo unspecified), 175 °C. As for `NC(=O)N1C(=O)C(C(=O)c2ccco2)c2nc(Cl)ccc21` (stereo unspecified), the figure is 248 to 260 °C. For `COC(=O)c1c(SCc2ccc(OC)cc2)nc(-c2ccccc2)n1Cc1cc2c(cc1Cl)OCO2` the value was 158 °C; for `CCCCC(=O)NCCC(=O)O`, 73 to 76 °C; for `CNS(=O)(=O)c1cc2c(c(C(=O)NC3CCN(Cc4ccccc4)CC3)c1)OCCO2`, 228 °C. Turning to `COc1cc(OC)nc(N(C(=S)Oc2ccccc2)C(=S)Oc2ccccc2)n1`, the melting point lay within 127 to 128 °C. As for `COc1c(Br)ccc2ccc(Cl)nc12`, the figure is 130 to 132 °C; as for `CNc1nn(-c2ccc(C)c3c2OC(C)(C)C3)c(=O)o1`, 183 to 184 °C; as for `Cc1[nH]n(Cc2cccc(C(N)=O)c2)c2nc(-c3ccncc3)nc(=O)c1-2`, above 300 °C. As for `CC(=O)Nc1ccc(S(=O)(=O)NCc2cc3c(ccc4cnn(C[C@H](C)N)c43)o2)cc1`, the figure is 80 to 85 °C; as for `CN(C)S(=O)(=O)Nc1ccc(C(=O)Nc2ccccc2)cc1`, 213 to 215 °C. As for `CNC(=O)Nc1cc(C(Cl)(Cl)Cl)ccn1`, the figure is 192 to 195 °C; as for `O=[N+]([O-])c1cc(Cl)cc2c1OCCO2`, 135 to 137 °C; as for `O=C(O)C(CC(=O)N1Cc2ccc(F)cc2C1)Cc1ccccc1` (stereo unspecified), 136 to 138 °C. For the compound `Cn1nc(-c2cc([N+](=O)[O-])c(O)cc2F)c(Cl)c1C(F)(F)F`, the melting point was in the range of 89 to 90 °C.

`Nc1cc2c3c(cccc3c1N1CCCC1)C(=O)N(O)C2=O` registered a melting point of 253 to 256 °C. For `CCCCCCCCCCCCCCCCCCOCCSCCO` the value was 58 to 59 °C; for `CCCc1ccc(-n2nc(Cl)cc2-c2ccc(S(C)(=O)=O)cc2)cc1N`, 152 to 154 °C; for `COC1C=C(C)C(=O)CC(C)(C)C1OC(=O)c1ccc([N+](=O)[O-])cc1[N+](=O)[O-]` (stereo unspecified), 148 to 149 °C. Regarding `CC(C)(C)n1c(=O)n(-c2ccnc(N)c2)c2ccccc21`, the melting point is 177 to 178 °C. For `COCc1c(C(=O)OC(C)C)ncc2[nH]c3c(c12)C(=O)CCC3` the value was 243 to 245 °C. As for `COCCCNC(=O)c1cc(Br)c(OCc2ccccc2)cc1OCc1ccccc1`, the figure is 104 to 106 °C; as for `CCc1ccc2c(=O)c(CO)cn(C)c2c1`, 147 to 148 °C.

In turn, `CCCc1nc2c(N)nc3ccccc3c2n1CCCCNS(=O)(=O)c1ccccc1` yielded a melting point of 159 to 161 °C.

As for `CSc1cc2c(cc1F)C(=O)c1cc3ccccc3cc1C2=O`, the melting point is 230 to 235 °C. As for `C=CC(=O)N1Cc2ccccc2SC(Cl)C1` (stereo unspecified), the figure is 66 to 68 °C. For `O=C(OC1CCCCC1)c1ncn2c1[C@@H]1CCCN1C(=O)c1c(Br)cccc1-2` the value was 167 to 168 °C. As for `CCOC(=O)NC1Cc2ccccc2C1`, the figure is 68 to 68.5 °C; as for `CCOC(=O)C1=C(C)Nc2nc(N3CCOCC3)nc(N3CCOCC3)c2C1c1ccccc1OC` (stereo unspecified), 188 °C; as for `CN(C)Cc1ccc(-c2ccc(C(=O)c3ccc(Br)cc3)c(O)c2)cc1`, 85 to 88 °C. Compound `CCCCOCCOc1ccc(-c2ccc(N3CCCCCC3)c(C=C(C)C(=O)O)c2)cc1` had a melting point of 124 to 126 °C. For `Nc1c(C(=O)c2cc(-c3ccccc3)no2)[nH]c2cc(Cl)ccc12` the value was 241 to 242 °C; for `COC1CCC2C3CCC4=CC(=O)C(C)CC4(C)C3CCC12C` (stereo unspecified), 130 to 145 °C. For `CO[C@@H]1CN(c2ccc3c(=O)c(C=O)cn(-c4nccs4)c3n2)C[C@H]1NCC(=O)OC(C)(C)C` (relative stereo) the value was 130 to 132 °C; for `CCOc1cc(Cc2cnc(N)nc2N)cc(OCC)c1-c1ccc(CNCC(F)(F)F)cc1`, 146 to 149 °C; for `CN(C)c1n[nH]c(=O)n1N`, 205 °C. Turning to `C[C@H](OC(=O)Oc1ccc([N+](=O)[O-])cc1)C(=O)N[C@@H]1C(=O)Nc2c(F)cccc2O[C@@H]1C`, the melting point was 140 to 145 °C. As for `O=C(O)CCCCCCc1cnc2ccccc2c1`, the figure is 120 to 121 °C. For `CNC(=O)c1cc(-c2c[nH]nc2-c2ccc(F)cc2)ccn1` the value was 88 to 89 °C; for `COc1cc2c(cc1C(=O)O)nnn2C(C)=O`, 208 to 212 °C; for `Cc1cccc2c1N(C)CS2=O` (stereo unspecified), 122 to 124 °C.

As for `COc1cc(OC)nc(Sc2ccnc3cc(Cl)ccc23)n1`, the melting point is 93 to 94.5 °C. For `COc1ccc(-c2cc(=O)n(CC=Cc3ccc(Cl)cc3)nc2-c2ccc(OC)c(F)c2)cc1` the value was 144 to 145 °C; for `CS(=O)(=O)c1ccc(COc2cc(C=C3SC(=S)N(CC(=O)O)C3=O)ccc2OCc2ccccc2)cc1`, 207 to 211 °C; for `COC(=O)c1ccc2oc3c(c(=O)c2c1)CCC3=Cc1ccc(N)cc1`, 265 to 268 °C. On to `COC(=O)CCCCCC(c1ccccc1)c1c(C)c(O)c(C)c(C)c1OC(C)=O` (stereo unspecified), for which the melting point lay within 146 to 148 °C. As for `Cc1c(C)n(CC2CCCCC2)c2c(OCc3ccc(F)cc3)nncc12`, the figure is 108 to 109 °C. For `CCn1cccc1C(=O)C(C#N)C(=O)Nc1ccccc1` (stereo unspecified) the value was 77 to 79 °C; for `Nc1ccccc1CCN1CCCCC1`, 36 to 38 °C. For `CCOC(=O)Cc1ccc(NC(=O)C(C)C)cc1` the value was 92.5 to 93.5 °C; for `CCN(CC)CCOc1ccc(NC(=O)C#Cc2ccc(-c3ccccc3)cc2)cc1Cl`, 105 to 108 °C. Take `Cc1ccc(N(C(=O)CCl)c2c(Cl)cccc2Cl)cc1`: the melting point was found to be 130 °C. As to `Cc1c(-c2ccc(O)cc2)sc(C=O)c1-c1ccc(O)c(C=O)c1`, the melting point was 228 to 230 °C.

`O=C(CS(=O)(=O)c1ccccc1)c1ccccn1` registered a melting point of 101 to 103 °C. Compound `C[C@@H](c1ccc(-c2c[nH]nn2)cc1)[C@](O)(Cn1cncn1)c1ccc(F)cc1F` returned a melting point of 121 °C. `Oc1ccc(Cn2ccnc2)c2cccnc12`: the melting point stood at 182 °C. As for `C=CCNC(=O)c1c([Si](C)(C)C)sc2ccccc12`, the figure is 72 to 75 °C; as for `NC(=O)Cc1ccc2c(c1)CCc1ccccc1S2`, 188 to 189 °C; as for `N=c1ccccn1Cc1ccccc1`, 52 to 54 °C. As for `COc1cc(OCCNC(C)=O)cc(-c2nc3cc(OC)cc(OC)c3c(=O)[nH]2)c1`, the figure is 264 to 265 °C. For `CCOC(=O)/C=C/c1cnn(C)c1-c1ccoc1` the value was 82 to 83 °C; for `CO[C@]1(c2cccc(Sc3ccc4c(ccc(=O)n4C)c3)c2)CCO[C@@H](C)C1`, 93 to 96 °C.
